In US8945595B2, “Insect repellent and attractants” (The Regents of the University of California, priority 2009, dated 2015):

How the values were obtained:
[1] = tested on: CO2-sensitive ab1C neurons; assay: single-sensillum electrophysiology, baseline (spontaneous) activity of ab1C neurons; type: cell-based, Drosophila
Description: A number of individual odourants were tested for their ability to inhibit the baseline activity of the neuron using single-sensillum electrophysiology. […] Extracellular single-unit recordings were performed. Odourant stimuli were delivered via Pasteur pipette odour cartridges (see, FIG. 16). Chemicals were of the highest purity available, typically>99% (Sigma-Aldrich). All odourants were diluted in paraffin oil. A controlled volume of air 5 ml/sec was puffed through the odour cartridge containing vapours, and was delivered into a constant humidified airstream of 10 ml/sec that was passed over the fly antenna. […] CO2 stimulus was pulsed through a separate delivery system that delivered controlled pulses (variable 2.5 ml/sec-6.5 ml/sec) into the same humidified airstream, from either a 1%, 5% or 100% tank of CO2 (Airgas). […] Unless mentioned, responses were quantified by subtraction of spontaneous activity from activity during the stimulus. […] Both these compounds are present at electrophysiologically relevant concentrations in Drosophila food sources: 1-hexanol has been detected in various types of fruit including mango, melon, strawberry, passion fruit, muskmelon and banana; 2,3-butanedione is a natural by-product of fermentation by yeast and is thus also present in beer.

Or83b2 mutant flies = assay: T-maze choice assay, avoidance behavior to CO2, Or83b2 mutant flies; type: in vivo, Drosophila; conditions: odourant with CO2
Description: (a) A t-maze is used to show preference to a test odor or to a solvent. Flies are starved 24 hrs prior to assay. All assays performed for 1-min in the dark. A negative preference index indicates avoidance. (a) Flies in a T-maze were offered a choice between a 15 ml tube infused with 0.1ml of CO2 prior to start of assay, and another that was infused with air. (b) wildtype and Or83b−/− flies were presented with CO2, a mixture of CO2 and 2,3-butanedione (d4on), or d4on alone. (c) Flies were exposed to 10 ul d4on 10^−2 for 1 min, allowed to recover for 2 min in clean air and then assayed for avoidance to CO2. A control exposure to 1 min of 2-methylphenol (2 mpol) at 10^−2 and then a recovery period of 2 min is also assayed for avoidance behavior to CO2. (d) Flies are exposed to d4on for 1 min, allowed to recover for 2 min, and then assayed for behavior to ethyl acetate (2AC). Behavior to 2AC without pre-exposure is also measured. […]
T-maze behavioral testing using Drosophila stress odour, CO2, and mixtures were using techniques known in the art, with some modifications. […] The avoidance response was calculated as a Preference Index (PI)=(number of flies in test arm−number of flies in control arm)/(total number of flies in assay). […] The avoidance response was calculated as a Preference Index (PI)=(number of flies in test arm−number of flies in control arm)/(total number of flies in assay). […]

[2] = tested on: CO2 sensitive A neuron of peg sensillum; assay: activation of CO2 sensitive neuron with a volatile odorant; type: cell-based, Aedes aegypti; conditions: 1 sec puff, indicated dilution
Description: (§1) FIG. 2 depicts electrophysiology measurements of the peg sensillum on the mosquito maxillary palp. The palp, indicated in brown in the schematic of the mosquito head, has several peg sensilla. Each peg sensilla (grey club-like structure in the center) contains three olfactory neurons A, B and C as indicated, of which the ‘A’ neuron gives a robust and specific increase in frequency of action potentials in response to a stimulus of CO2. Extracellular single-unit recordings are performed by inserting a glass microelectrode into the peg sensilla, and puffing an odor such as CO2 towards the mosquito maxillary palps. The signal is amplified to obtain the trace of action potentials.
(§2) (a) Action potential traces from the peg sensillum of the maxillary palp show spike amplitudes from three neurons, where the spikes with the largest amplitude belongs to the CO2 sensitive A neuron. (b) 1 sec of the indicated dilution 2,3-butanedione is puffed to Aedes aegypti. (c) 1 sec of indicated odor is puffed to Anopheles gambiae. (d) butanone and (e) 2,3-butanedione are given to Culex quinquefasciatus at the indicated concentrations. PO=paraffin oil. n=5. Baseline activity subtracted. Error bars indicate SEM.

[3] = tested on: CO2 sensitive A neuron of peg sensillum; assay: as above; type: cell-based, Culex quinquefasciatus; conditions: indicated concentrations
Description: as §1, §2

| SMILES | inhibition of spontaneous activity of ab1C neurons [1] | avoidance behavior to CO2 (Preference Index) (Or83b2 mutant flies) | activation of CO2 sensitive neuron [2] | activation of CO2 sensitive neuron [3] |
| --- | --- | --- | --- | --- |
| CC(=O)C(C)=O [2,3-butanedione] | strongly inhibit | significantly reduced | activation | activation |
| CCCCCCO [1-hexanol] | strongly inhibit | significantly reduced |  |  |
